Results taken from patent publication US9884842B2, “Combretastatin analogs” (The Board of Trustees of the University of Arkansas, priority 2013, dated 2018).

How the values were obtained:
[1] = test system: T-47D; assay: NCI growth inhibition and cytotoxicity screen, Breast Cancer panel; conditions: Homo sapiens, T47D; for CC50: read-out: LC50
[2] = test system: HL-60(TB); assay: cells; conditions: Homo sapiens; for GI50: HL-60; for CC50: HL-60, read-out: LC50
[3] = test system: SF-268; assay: NCI growth inhibition and cytotoxicity screen, CNS Cancer panel; conditions: Homo sapiens; for GI50: SF-268; for CC50: SF-268, read-out: LC50
[4] = test system: MALME-3M; assay: NCI growth inhibition and cytotoxicity screen, Melanoma panel; conditions: Homo sapiens; for CC50: read-out: LC50
[5] = test system: MDA-MB-435; assay: as above; conditions: Homo sapiens; for GI50: MDA-MB-435; for CC50: MDA-MB-435, read-out: LC50
[6] = test system: 786-0; assay: NCI growth inhibition and cytotoxicity screen, Renal Cancer panel; conditions: Homo sapiens; for GI50: 786-0; for CC50: 786-0, read-out: LC50
[7] = test system: TK-10; assay: as above; conditions: Homo sapiens; for GI50: TK-10; for CC50: TK-10, read-out: LC50
[8] = test system: DU-145; assay: NCI growth inhibition and cytotoxicity screen, Prostate Cancer panel; conditions: Homo sapiens; for GI50: DU-145; for CC50: DU-145, read-out: LC50
[9] = test system: NCI-H322M; assay: NCI growth inhibition and cytotoxicity screen, Lung Cancer panel; conditions: Homo sapiens; for CC50: read-out: LC50
[10] = test system: SW-620; assay: NCI growth inhibition and cytotoxicity screen, Colon Cancer panel; conditions: Homo sapiens; for GI50: SW-620; for CC50: SW-620, read-out: LC50
[11] = test system: SK-MEL-5; assay: NCI growth inhibition and cytotoxicity screen, Melanoma panel; conditions: Homo sapiens; for GI50: SK-MEL-5; for CC50: SK-MEL-5, read-out: LC50
[12] = test system: MDA-MB-231/ATCC; assay: NCI growth inhibition and cytotoxicity screen, Breast Cancer panel; conditions: Homo sapiens; for GI50: MDA-MB-231; for CC50: MDA-MB-231, read-out: LC50
[13] = test system: HCC-2998; assay: NCI growth inhibition and cytotoxicity screen, Colon Cancer panel; conditions: Homo sapiens; for GI50: HCC 2998; for CC50: HCC 2998, read-out: LC50
[14] = test system: OVCAR-3; assay: cells; conditions: Homo sapiens; for GI50: OVCAR-3; for CC50: OVCAR-3, read-out: LC50
[15] = test system: SK-MEL-2; assay: NCI growth inhibition and cytotoxicity screen, Melanoma panel; conditions: Homo sapiens; for GI50: SK-MEL-2; for CC50: SK-MEL-2, read-out: LC50
[16] = test system: A549/ATCC; assay: NCI growth inhibition and cytotoxicity screen, Lung Cancer panel; conditions: Homo sapiens; for GI50: A549; for CC50: A549, read-out: LC50
[17] = test system: A498; assay: NCI growth inhibition and cytotoxicity screen, Renal Cancer panel; conditions: Homo sapiens; for GI50: A498; for CC50: A498, read-out: LC50
[18] = test system: NCI-H460; assay: NCI growth inhibition and cytotoxicity screen, Lung Cancer panel; conditions: Homo sapiens; for GI50: NCI-H460; for CC50: NCI-H460, read-out: LC50
[19] = test system: SF-539; assay: NCI growth inhibition and cytotoxicity screen, CNS Cancer panel; conditions: Homo sapiens; for GI50: SF-539; for CC50: SF-539, read-out: LC50
[20] = test system: HOP-62; assay: NCI growth inhibition and cytotoxicity screen, Lung Cancer panel; conditions: Homo sapiens; for GI50: HOP-62; for CC50: HOP-62, read-out: LC50
[21] = test system: OVCAR-5; assay: NCI growth inhibition and cytotoxicity screen, Ovarian Cancer panel; conditions: Homo sapiens; for GI50: OVCAR-5; for CC50: OVCAR-5, read-out: LC50
[22] = test system: OVCAR-4; assay: as above; conditions: Homo sapiens; for GI50: OVCAR-4; for CC50: OVCAR-4, read-out: LC50
[23] = test system: K-562; assay: NCI growth inhibition and cytotoxicity screen, Leukemia panel; conditions: Homo sapiens; for CC50: K562, read-out: LC50
[24] = test system: SK-MEL-28; assay: NCI growth inhibition and cytotoxicity screen, Melanoma panel; conditions: Homo sapiens; for GI50: SK-MEL-28; for CC50: SK-MEL-28, read-out: LC50
[25] = test system: SK-OV-3; assay: NCI growth inhibition and cytotoxicity screen, Ovarian Cancer panel; conditions: Homo sapiens; for GI50: SK-OV-3; for CC50: SK-OV-3, read-out: LC50
[26] = test system: SN12C; assay: NCI growth inhibition and cytotoxicity screen, Renal Cancer panel; conditions: Homo sapiens; for CC50: read-out: LC50
[27] = test system: ACHN; assay: as above; conditions: Homo sapiens; for CC50: read-out: LC50
[28] = test system: IGROV1; assay: NCI growth inhibition and cytotoxicity screen, Ovarian Cancer panel; conditions: Homo sapiens; for GI50: IGROV-1; for CC50: IGROV-1, read-out: LC50
[29] = test system: BT-549; assay: NCI growth inhibition and cytotoxicity screen, Breast Cancer panel; conditions: Homo sapiens; for GI50: BT-549; for CC50: BT-549, read-out: LC50
[30] = test system: HOP-92; assay: NCI growth inhibition and cytotoxicity screen, Lung Cancer panel; conditions: Homo sapiens; for GI50: HOP-92; for CC50: HOP-92, read-out: LC50
[31] = test system: CCRF-CEM; assay: NCI growth inhibition and cytotoxicity screen, Leukemia panel; conditions: Homo sapiens; for CC50: read-out: LC50
[32] = test system: MDA-MB-468; assay: cells; conditions: Homo sapiens; for GI50: MDA-MB-468; for CC50: MDA-MB-468, read-out: LC50

COc1cc(/C=C/c2cc3ccccc3o2)cc(OC)c1OC [Formula (I)(c)]
GI50 [1]: 0.00069 µM | CC50 [1]: > 100 µM | GI50 [2]: 0.00035 µM | CC50 [2]: > 100 µM | GI50 [3]: 0.00086 µM | CC50 [3]: > 100 µM | GI50 [4]: 0.41 nM | CC50 [4]: 86.3 µM | GI50 [5]: 0.078 nM | CC50 [5]: > 100 µM | GI50 [6]: 0.00085 µM | CC50 [6]: 79.8 µM | GI50 [7]: 8.4 nM | CC50 [7]: > 100 µM | GI50 [8]: 1.86 nM | CC50 [8]: > 100 µM | GI50 [9]: 0.0159 µM | CC50 [9]: > 100 µM | GI50 [10]: 0.44 nM | CC50 [10]: > 100 µM | GI50 [11]: 0.34 nM | CC50 [11]: 42 µM | GI50 [12]: 1.17 nM | CC50 [12]: > 100 µM | GI50 [13]: 3.34 nM | CC50 [13]: > 100 µM | GI50 [14]: 0.42 nM | CC50 [14]: 48.1 µM | GI50 [15]: 0.76 nM | CC50 [15]: > 100 µM | GI50 [16]: 0.61 nM | CC50 [16]: > 100 µM | GI50 [17]: 0.4 nM | CC50 [17]: 48.4 µM | GI50 [18]: 0.41 nM | CC50 [18]: > 100 µM | GI50 [19]: 0.27 nM | CC50 [19]: > 100 µM | GI50 [20]: 0.00077 µM | CC50 [20]: > 100 µM | GI50 [21]: 2.94 nM | CC50 [21]: > 100 µM | GI50 [22]: 0.00115 µM | CC50 [22]: > 100 µM | CC50 [23]: > 100 µM | GI50 [24]: 0.83 nM | CC50 [24]: > 100 µM | GI50 [25]: 0.65 nM | CC50 [25]: > 100 µM | GI50 [26]: 4.09 nM | CC50 [26]: > 100 µM | GI50 [27]: 0.86 nM | CC50 [27]: > 100 µM | GI50 [28]: 0.8 nM | CC50 [28]: > 100 µM | GI50 [29]: 1.09 nM | CC50 [29]: 79.5 µM | GI50 [30]: 0.17 nM | CC50 [30]: > 100 µM | GI50 [31]: 0.42 nM | CC50 [31]: > 100 µM | GI50 [32]: 0.66 nM | CC50 [32]: > 100 µM

COc1cc(/C(C#N)=C/c2cnc3ccccc3c2)cc(OC)c1OC [PNR-5-10, (Z)-3-(quinolin-3-yl)-2-(3,4,5-trimethoxyphenyl)acrylonitrile]
GI50 [1]: 9.54 µM | CC50 [1]: > 100 µM | GI50 [2]: 329 µM | CC50 [2]: > 100 µM | GI50 [3]: 9.17 µM | CC50 [3]: > 100 µM | GI50 [4]: 691 nM | CC50 [4]: > 100 µM | GI50 [5]: 227 nM | CC50 [5]: > 100 µM | GI50 [6]: 6.29 µM | CC50 [6]: > 100 µM | GI50 [7]: 2550 nM | CC50 [7]: > 100 µM | GI50 [8]: 1510 nM | CC50 [8]: > 100 µM | GI50 [9]: 27.4 µM | CC50 [9]: > 100 µM | GI50 [10]: 420 nM | CC50 [10]: > 100 µM | GI50 [11]: 410 nM | CC50 [11]: > 100 µM | GI50 [12]: 2830 nM | CC50 [12]: > 100 µM | GI50 [13]: 2010 nM | CC50 [13]: > 100 µM | GI50 [14]: 263 nM | CC50 [14]: > 100 µM | GI50 [15]: 1050 nM | CC50 [15]: > 100 µM | GI50 [16]: 680 nM | CC50 [16]: > 100 µM | GI50 [17]: 678 nM | CC50 [17]: > 100 µM | GI50 [18]: 2050 nM | CC50 [18]: > 100 µM | GI50 [19]: 361 nM | CC50 [19]: > 100 µM | GI50 [20]: 10.3 µM | CC50 [20]: > 100 µM | GI50 [21]: 3940 nM | CC50 [21]: > 100 µM | GI50 [22]: 13.8 µM | CC50 [22]: > 100 µM | GI50 ([23]; K562): 444 nM | CC50 [23]: > 100 µM | GI50 [24]: 3270 nM | CC50 [24]: > 100 µM | GI50 [25]: 1340 nM | CC50 [25]: > 100 µM | GI50 [26]: 1940 nM | CC50 [26]: > 100 µM | GI50 [27]: 911 nM | CC50 [27]: > 100 µM | GI50 [28]: 3150 nM | CC50 [28]: > 100 µM | GI50 [29]: 1430 nM | CC50 [29]: > 100 µM | GI50 [30]: 403 nM | CC50 [30]: > 100 µM | GI50 [31]: 1380 nM | CC50 [31]: > 100 µM | GI50 [32]: 870 nM | CC50 [32]: > 100 µM
